The results in this text go back to US20240254118A1, “PRMT5 INHIBITORS AND USES THEREOF” (Gilead Sciences, Inc., priority 2022, published 2024).

Test [1] relates to SDMA signal (PRMT5 inhibition) in HCT116 MTAP-deleted cells. The test can be described thus: Symmetric di-methyl arginine image-based high content screen assay (SDMA assay), HCT116 MTAP-deleted. Format: cell-based. The note with it: SDMA assay; for EC50: Homo sapiens, HCT-116, 72 h, 3 days of treatment, cell line not given, taken as HCT116 MTAP-deleted, read-out: EC50 (SDMA assay); for EC50 selectivity (SDMA assay): taken as HCT116 WT versus MTAP-deleted. The gist of the method: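 HCT116 MTAP-deleted cells treated with compound until Day 3, then formalin-fixed, permeabilized and immunostained for SDMA, with DAPI nuclear counterstain. Imaged by high-content microscopy; SDMA read-out is mean Alexa 488 intensity per DAPI-defined cell, reflecting PRMT5 inhibition.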

Test [2] relates to HCT116 MTAP-deleted cells. Briefly: Cell viability assay (CellTiter-Glo, 7 days), HCT116 MTAP-deleted. The following applies: Homo sapiens, HCT-116, 168 h. For orientation: Cellular ATP, detected with luciferase, serves as a proxy for viable cell number.

Structures are written as SMILES.

As a reminder, the EC50 is the concentration needed to bring the measured effect to its halfway point. A word on the CC50: it is the concentration giving 50% cytotoxicity. A high value points to lower toxicity to the cells.

Consider `CC(=O)N(C)N(Cc1ncc(C(F)(F)F)cc1Cl)C(=O)c1ccc2nc(N)c3cnn(C)c3c2c1` [Example 261, N′-acetyl-4-amino-N-((3-chloro-5-(trifluoromethyl)pyridin-2-yl)methyl)-N′,1-dimethyl-1H-pyrazolo[4,3-c]quinoline-8-carbohydrazide], for which, in test [1], the EC50 was 1 to 5 nM and the “EC50 selectivity (SDMA assay)” value was found to be 257. The compound further returned a CC50 in test [2] of under 100 nM.

On to `CN(C(=O)[C@H]1C[C@H]1F)N(Cc1ncc(C(F)(F)F)cc1F)C(=O)c1ccc2nc(N)c3cnn(C)c3c2c1` [Example 262, 4-amino-N-((3-fluoro-5-(trifluoromethyl)pyridin-2-yl)methyl)-N′-((1R,2R)-2-fluorocyclopropane-1-carbonyl)-N′,1-dimethyl-1H-pyrazolo[4,3-c]quinoline-8-carbohydrazide], for which, in test [1], the EC50 was in the range of 1 to 5 nM and the “EC50 selectivity (SDMA assay)” value came to 169. The CC50 in test [2] was under 100 nM.

Take `[2H]C([2H])(c1ccc(C(F)(F)F)cc1F)N(C(=O)c1ccc2nc(N)c3cnn(C)c3c2c1)N(C)C(=O)C1CC1` [Example 263, 4-amino-N′-(cyclopropanecarbonyl)-N-((2-fluoro-4-(trifluoromethyl)phenyl)methyl-d2)-N′,1-dimethyl-1H-pyrazolo[4,3-c]quinoline-8-carbohydrazide]: in test [1], the EC50 is under 1 nM and the “EC50 selectivity (SDMA assay)” value was determined as 46. Also, the CC50 in test [2] was under 100 nM.

As for `[2H]C([2H])(c1ccc(C(F)(F)F)cc1F)N(C(=O)c1ccc2nc(N)c3cnn(C)c3c2c1)N(C)C(C)=O` [Example 264, N′-acetyl-4-amino-N-((2-fluoro-4-(trifluoromethyl)phenyl)methyl-d2)-N′,1-dimethyl-1H-pyrazolo[4,3-c]quinoline-8-carbohydrazide], in test [1], the EC50 was under 1 nM and the “EC50 selectivity (SDMA assay)” value was 281. This compound yielded a CC50 in test [2] of under 100 nM.

In the case of `CCC(=O)N(C)N(Cc1ncc(C(F)(F)F)cc1F)C(=O)c1ccc2nc(N)c3cnn(C)c3c2c1` [Example 265, 4-amino-N-((3-fluoro-5-(trifluoromethyl)pyridin-2-yl)methyl)-N′,1-dimethyl-N′-propionyl-1H-pyrazolo[4,3-c]quinoline-8-carbohydrazide], in test [1], the EC50 was under 1 nM and the “EC50 selectivity (SDMA assay)” value is reported as 209. Also, in test [2], the CC50 was under 100 nM.

Take `[2H]C([2H])([2H])N(C(C)=O)N(Cc1ccc(C(F)(F)F)cc1F)C(=O)c1ccc2nc(N)c3cnn(C([2H])([2H])[2H])c3c2c1` [Example 266, N′-acetyl-4-amino-N-(2-fluoro-4-(trifluoromethyl)benzyl)-N′,1-bis(methyl-d3)-1H-pyrazolo[4,3-c]quinoline-8-carbohydrazide]: in test [1], the EC50 was under 1 nM and the “EC50 selectivity (SDMA assay)” value amounted to 63. In test [2], this compound came in with a CC50 of under 100 nM.

Consider `Cc1cc(CN(C(=O)c2ccc3nc(N)c4cnn(C)c4c3c2)N(C)C(=O)C2CC2)ncc1Cl` [Example 267, 4-amino-N-((5-chloro-4-methylpyridin-2-yl)methyl)-N′-(cyclopropanecarbonyl)-N′,1-dimethyl-1H-pyrazolo[4,3-c]quinoline-8-carbohydrazide], for which, in test [1], the concentration giving a half-maximal response (EC50) lay within 1 to 5 nM and the “EC50 selectivity (SDMA assay)” value is recorded as 223. For the same compound, the CC50 in test [2] is under 100 nM.

As for `[2H]C([2H])([2H])n1ncc2c(N)nc3ccc(C(=O)N(Cc4ccc(C(F)(F)F)cc4F)N(C)C(C)=O)cc3c21` [Example 270, N′-acetyl-4-amino-N-(2-fluoro-4-(trifluoromethyl)benzyl)-N′-methyl-1-(methyl-d3)-1H-pyrazolo[4,3-c]quinoline-8-carbohydrazide], in test [1], the half-maximal effective concentration (EC50) is under 1 nM and the “EC50 selectivity (SDMA assay)” value came to 129. This compound came in with a CC50 in test [2] of under 100 nM.

In the case of `CC(=O)N(C)N(Cc1ncc(C(F)(F)F)cc1F)C(=O)c1ccc2nc(N)c3cnn(C)c3c2c1` [Example 271, N′-acetyl-4-amino-N-((3-fluoro-5-(trifluoromethyl)pyridin-2-yl)methyl)-N′,1-dimethyl-1H-pyrazolo[4,3-c]quinoline-8-carbohydrazide], in test [1], the EC50 is under 1 nM and the “EC50 selectivity (SDMA assay)” value amounted to 86. This compound also had a CC50 in test [2] of under 100 nM.

`CN(C(=O)C1CC1)N(Cc1cc(F)c(F)cc1F)C(=O)c1ccc2nc(N)c3cnn(C)c3c2c1` [Example 272, 4-amino-N′-(cyclopropanecarbonyl)-N′,1-dimethyl-N-(2,4,5-trifluorobenzyl)-1H-pyrazolo[4,3-c]quinoline-8-carbohydrazide]: in test [1], the EC50 is under 1 nM and the “EC50 selectivity (SDMA assay)” value was 466. The CC50 in test [2] was under 100 nM.

In the case of `CN(C(=O)C1CC1)N(Cc1ncc(C(F)(F)F)cc1F)C(=O)c1ccc2nc(N)c3cnn(C)c3c2c1` [Example 274, 4-amino-N′-(cyclopropanecarbonyl)-N-((3-fluoro-5-(trifluoromethyl)pyridin-2-yl)methyl)-N′,1-dimethyl-1H-pyrazolo[4,3-c]quinoline-8-carbohydrazide], in test [1], the EC50 is under 1 nM and the “EC50 selectivity (SDMA assay)” value came to 243. This compound displayed a CC50 in test [2] of under 100 nM.

`Cc1nc2ccc(CN(C(=O)c3ccc4nc(N)c5cnn(C)c5c4c3)N(C)C(=O)C3CC3)cc2s1` [Example 275, 4-amino-N′-(cyclopropanecarbonyl)-N′,1-dimethyl-N-((2-methylbenzo[d]thiazol-6-yl)methyl)-1H-pyrazolo[4,3-c]quinoline-8-carbohydrazide]: in test [1], the EC50 is under 1 nM and the “EC50 selectivity (SDMA assay)” value is 129. This compound also showed a CC50 in test [2] of under 100 nM.

In the case of `CN(C(=O)[C@@H]1C[C@@H]1F)N(Cc1ccc(C(F)(F)F)cn1)C(=O)c1ccc2nc(N)c3cnn(C)c3c2c1` [Example 276, 4-amino-N′-((1S,2S)-2-fluorocyclopropane-1-carbonyl)-N′,1-dimethyl-N-((5-(trifluoromethyl)pyridin-2-yl)methyl)-1H-pyrazolo[4,3-c]quinoline-8-carbohydrazide], in test [1], the EC50 fell in the range of 1 to 5 nM and the “EC50 selectivity (SDMA assay)” value is 166. For the same compound, in test [2], the CC50 was under 100 nM.

`Cn1ncc2c(N)nc3ccc(C(=O)N(Cc4ccc(C(F)(F)F)cn4)NC(=O)OC(C)(C)C)cc3c21` [Example 277, tert-butyl 2-(4-amino-1-methyl-1H-pyrazolo[4,3-c]quinoline-8-carbonyl)-2-((5-(trifluoromethyl)pyridin-2-yl)methyl)hydrazine-1-carboxylate]: in test [1], the EC50 lay in the range of 1 to 5 nM and the “EC50 selectivity (SDMA assay)” value amounted to 229. In addition, the CC50 in test [2] was under 100 nM.

In the case of `[2H]C([2H])([2H])N(C(=O)C1CC1)N(Cc1ncc(C(F)(F)F)cc1F)C(=O)c1ccc2nc(N)c3cnn(C([2H])([2H])[2H])c3c2c1` [Example 278, 4-amino-N′-(cyclopropanecarbonyl)-N-((3-fluoro-5-(trifluoromethyl)pyridin-2-yl)methyl)-N′,1-bis(methyl-d3)-1H-pyrazolo[4,3-c]quinoline-8-carbohydrazide], in test [1], the EC50 was under 1 nM and the “EC50 selectivity (SDMA assay)” value came out at 121. The CC50 in test [2] was under 100 nM.

For `CN(C(=O)C1CC1)N(Cc1cnc(C(F)(F)F)c(F)c1)C(=O)c1ccc2nc(N)c3cnn(C)c3c2c1` [Example 279, 4-amino-N′-(cyclopropanecarbonyl)-N-((5-fluoro-6-(trifluoromethyl)pyridin-3-yl)methyl)-N′,1-dimethyl-1H-pyrazolo[4,3-c]quinoline-8-carbohydrazide], in test [1], the EC50 lay in the range of 1 to 5 nM and the “EC50 selectivity (SDMA assay)” value was found to be 494. The same compound yielded a CC50 in test [2] of 100 to 1000 nM.

As for `CCC(=O)N(CC)N(Cc1ccc(C(F)(F)F)cn1)C(=O)c1cc2c(cc1F)nc(N)c1cnn(C)c12` [Example 280, 4-amino-N′-ethyl-7-fluoro-1-methyl-N′-propionyl-N-((5-(trifluoromethyl)pyridin-2-yl)methyl)-1H-pyrazolo[4,3-c]quinoline-8-carbohydrazide], in test [1], the EC50 fell in the range of 1 to 5 nM and the “EC50 selectivity (SDMA assay)” value was determined as 31. In test [2], this compound registered a CC50 of under 100 nM.

Take `CN(C(=O)C1CC1)N(Cc1ccc(C(F)(F)F)cn1)C(=O)c1ccc2nc(N)c3cn[nH]c3c2c1` [Example 281, 4-amino-N′-(cyclopropanecarbonyl)-N′-methyl-N-((5-(trifluoromethyl)pyridin-2-yl)methyl)-1H-pyrazolo[4,3-c]quinoline-8-carbohydrazide]: in test [1], the concentration for a half-maximal effect (EC50) was in the range of 1 to 5 nM and the “EC50 selectivity (SDMA assay)” value is 70. In test [2], this compound had a CC50 of under 100 nM.

With `CN(C(=O)C1CC1)N(Cc1ccc2c(c1)OC(F)(F)O2)C(=O)c1ccc2nc(N)c3cnn(C)c3c2c1` [Example 283, 4-amino-N′-(cyclopropanecarbonyl)-N-((2,2-difluorobenzo[d][1,3]dioxol-5-yl)methyl)-N′,1-dimethyl-1H-pyrazolo[4,3-c]quinoline-8-carbohydrazide], in test [1], the EC50 was under 1 nM and the “EC50 selectivity (SDMA assay)” value came to 80. The compound also showed a 50% cytotoxic concentration (CC50) in test [2] of under 100 nM.

Take `CCN(C(=O)C1CC1)N(Cc1ccc(C(F)(F)F)cn1)C(=O)c1cc2c(cc1F)nc(N)c1cnn(C)c12` [Example 286, 4-amino-N′-(cyclopropanecarbonyl)-N′-ethyl-7-fluoro-1-methyl-N-((5-(trifluoromethyl)pyridin-2-yl)methyl)-1H-pyrazolo[4,3-c]quinoline-8-carbohydrazide]: in test [1], the EC50 was under 1 nM and the “EC50 selectivity (SDMA assay)” value worked out at 16. Further, the CC50 in test [2] was under 100 nM.

As for `CCC(=O)N(CC)N(Cc1ccc(C(F)(F)F)cn1)C(=O)c1ccc2nc(N)c3cnn(C)c3c2c1` [Example 287, 4-amino-N′-ethyl-1-methyl-N′-propionyl-N-((5-(trifluoromethyl)pyridin-2-yl)methyl)-1H-pyrazolo[4,3-c]quinoline-8-carbohydrazide], in test [1], the EC50 fell in the range of 1 to 5 nM and the “EC50 selectivity (SDMA assay)” value is listed as 174. Besides, the CC50 in test [2] was under 100 nM.
